Measured values as given in the NIST ThermoML archive (doi:10.1021/je800925v).

Assay: xn = mol fraction of the nth substance listed
Details: Liquid

CCCCCCCCCC [decane] + CCO
Details	mass density [kg/m3]	viscosity [mPa·s]
273.15 K, x2 = 0.098	746.5	1.236
273.15 K, x2 = 0.198	748.3	1.257
273.15 K, x2 = 0.301	750.7	1.273
273.15 K, x2 = 0.397	753.8	1.328
273.15 K, x2 = 0.501	757.4	1.429
273.15 K, x2 = 0.602	762.7	1.523
273.15 K, x2 = 0.694	767.4	1.53
273.15 K, x2 = 0.799	774.9	1.565
273.15 K, x2 = 0.905	787.7	1.639
275.65 K, x2 = 0.098	744.6	1.181
275.65 K, x2 = 0.198	746.4	1.2
275.65 K, x2 = 0.301	748.7	1.213
275.65 K, x2 = 0.397	751.8	1.263
275.65 K, x2 = 0.501	755.4	1.351
275.65 K, x2 = 0.602	760.7	1.432
275.65 K, x2 = 0.694	765.4	1.448
275.65 K, x2 = 0.799	772.9	1.486
275.65 K, x2 = 0.905	785.7	1.557
278.15 K, x2 = 0.098	742.7	1.13
278.15 K, x2 = 0.198	744.4	1.148
278.15 K, x2 = 0.301	746.8	1.158
278.15 K, x2 = 0.397	749.9	1.203
278.15 K, x2 = 0.501	753.4	1.281
278.15 K, x2 = 0.602	758.7	1.353
278.15 K, x2 = 0.694	763.3	1.374
278.15 K, x2 = 0.799	770.9	1.412
278.15 K, x2 = 0.905	783.6	1.48
280.65 K, x2 = 0.098	740.8	1.083
280.65 K, x2 = 0.198	742.5	1.099
280.65 K, x2 = 0.301	744.8	1.107
280.65 K, x2 = 0.397	747.9	1.147
280.65 K, x2 = 0.501	751.5	1.217
280.65 K, x2 = 0.602	756.7	1.282
280.65 K, x2 = 0.694	761.3	1.305
280.65 K, x2 = 0.799	768.8	1.344
280.65 K, x2 = 0.905	781.6	1.408
283.15 K, x2 = 0.098	738.9	1.038
283.15 K, x2 = 0.198	740.6	1.053
283.15 K, x2 = 0.301	742.9	1.06
283.15 K, x2 = 0.397	746	1.096
283.15 K, x2 = 0.501	749.5	1.159
283.15 K, x2 = 0.602	754.7	1.219
283.15 K, x2 = 0.694	759.3	1.242
283.15 K, x2 = 0.799	766.8	1.28
283.15 K, x2 = 0.905	779.5	1.341
285.65 K, x2 = 0.098	737	0.9963
285.65 K, x2 = 0.198	738.7	1.01
285.65 K, x2 = 0.301	741	1.015
285.65 K, x2 = 0.397	744	1.048
285.65 K, x2 = 0.501	747.5	1.105
285.65 K, x2 = 0.602	752.7	–
